Values joined by “and” are separate entries in the source; they are usually repeats but may differ in a detail not shown here. Identical values can stand only once. “Also recorded” adds a separate entry of the source.

The source of these data is patent publication US12370197B2, “Combination product of a Bcl-2/Bcl-xL inhibitor and a chemotherapeutic agent and use thereof in the prevention and/or treatment of diseases” (ASCENTAGE PHARMA (SUZHOU) CO., LTD., priority 2019, dated 2025).

One test deals with MV-4-11 AML xenograft. The experiment in a line: human MV-4-11 AML xenograft model in mice. Type of test: in vivo, mouse. As to conditions: for mRECIST: MV-4-11 xenograft, animals with response / animals in group; for RTV (D22) (Mean ± SEM) / T/C (%) (D22): female BALB/c Nude mice, s.c. MV-4-11, Compound 6 or ABT-199 50 mg/kg oral once daily 21 days, HHT 1 mg/kg i.p. once daily 14 days, day 22. On the procedure: Treatment was initiated on the day of grouping (Day 1). […] HHT was intraperitoneally administered once daily for consecutive 14 days. The tumor sizes (caliper) and animal body weights were measured twice a week.

The test system of a further test is OCI-AML-3 AML xenograft. The experiment in a line: human OCI-AML-3 AML xenograft model in mice. Type of test: in vivo, mouse. Particulars: female NOD SCID mice, s.c. OCI-AML-3; Compound 6 50 mg/kg oral once daily 14 days; HHT 0.75 mg/kg i.p. once daily 7 days from D2; day 15. How it is done:
Treatment was initiated on the grouping day (D1). […] HHT was intraperitoneally injected once daily from D2 and continued for consecutive 7 days. The tumor sizes (caliper) and animal body weights were measured twice a week.
A general note: In xenograft studies the graft and the host belong to different species.

For another test, the system named is SKM-1 cells. The experiment in a line: CellTiter-Glo luminometric cell viability assay (CTG), SKM-1. The class given is cell-based. On the procedure: (§1) In the antiproliferative tests, cells were plated in 96-well plates (Corning, Cat. 3903) at 10000 cells/well/cell line. In the apoptosis assay, cells were plated in 24-well plates (Corning, Cat. 3524) at 200000 cells/well/cell line.
(§2) For combination tests, the results were further analyzed using the CalcuSyn program to calculate a Combination Index (CI) (Chou, T. C. (2010) “Drug combination studies and their synergy quantification using the Chou-Talalay method.”, Cancer Res 70(2): 440-446). […]
(§3) The anti-proliferation effects of the test sample in three AML/MDS cell lines, namely MV-4-11 (Compound 6 sensitive cell line), OCI-AML-3 (Compound 6 non-sensitive cell line) and SKM-1 (Compound 6 non-sensitive cell line), were determined by quantifying ATP using CellTiter-Glo luminescence cell viability detection kits, according to the manufacturer's instructions.
(§4) First, cells in the logarithmic growth phase were collected, centrifuged, and the cell suspension was counted and diluted/adjusted to the desired concentration. […] More than 3 blank control wells containing only medium (100 μL/well) without cells were set on the same plate to obtain background luminescence, and cell control wells, i.e., wells containing cells but treated with vehicle control, were set. […]
(§5) Luminescence signals were detected using a Biotek synergy H1 microplate reader. […]
A general note: In ATP-based viability assays light output follows the ATP content of the culture.

Test [1] relates to OCI-AML-3 cells. The experiment in a line: CellTiter-Glo luminometric cell viability assay (CTG), OCI-AML-3. Type of test: cell-based, human. How it is done: as §1, §2, §3, §4, §5
The next test deals with MV-4-11 cells. The experiment in a line: CellTiter-Glo luminometric cell viability assay (CTG), MV-4-11. The class given is cell-based, human. How it is done:
as §1, §2, §3, §4, §5

The test system of test [2] is OCI-AML-3 cells. The experiment in a line: Annexin V-PI apoptosis flow cytometry, OCI-AML-3. Type of test: cell-based, human. Particulars: 24 h, Compound 6 10 nM, HHT 30 nM, alone or combined. On the procedure: as §1
[Experimental Methods]: Flow Cytometer Analysis
Cells were harvested after 24 hours of treatment with Compound 6 alone, HHT alone, or the combination of both, and washed once with phosphate buffered saline (PBS). Cells were stained with Annexin-V and PI and analyzed using an Attune NxT flow cytometer. Apoptosis profiles were obtained by analyzing 20000 cells per experimental condition.
Apoptosis was detected using Annexin V-PI (propidium iodide) staining kit according to the manufacturer's instructions. After treating the cells MV-4-11, OCI-AML-3 and SKM-1 with 10 nM Compound 6 alone, 10 nM or 30 nM HHT alone or the combination of both for 24 hours, the cells were harvested and washed once with PBS. Cells were bi-color stained with Annenix V-FITC and PI. After staining was complete, analysis was performed using an Attune NxT flow cytometer. Apoptosis profiles were obtained by analyzing 20000 cells per experimental condition.

The test system of the next test is MCL-1. The experiment in a line: Western Blot assay, MCL-1. The class given is cell-based, human. As to conditions: MV-4-11, OCI-AML-3 and SKM-1 cells, 4 h; 10 nM Compound 6, 10 nM or 30 nM HHT. On the procedure: [Experimental Methods]: Western Blot Assay
Western Blot assay was performed after 4 hours treatment of cells in logarithmic growth phase with Compound 6, HHT, either alone or in combination.
After 4 hours of interaction with 10 nM Compound 6 in combination with 10 nM or 30 nM HHT, cells were harvested and washed once with pre-cooled PBS. The cell pellets were lysed using RIPA lysate containing 1% PMSF and 1% protease inhibitor. The protein concentration was detected by using a BCA protein concentration detection kit. Cell lysates (20-50 μg) were separated by 4-20% SDS-PAGE. The separated proteins were transferred to PVDF membranes which were blocked using 1% BSA (bovine serum albumin) buffer at room temperature for 1 hours before incubated in a shaker at 4° C. overnight with primary antibody diluted in 1×TBST (Tris-Buffered Saline Tween-20) containing 1% BSA. The membranes were washed 3 times with 1×TBST each for 10 minutes, and then were incubated for 1 hour at room temperature using horseradish peroxidase (HRP)-tagged secondary antibodies (goat anti-rabbit-HRP (Yeasen, Cat. #33101ES60) and goat anti-mouse-HRP (Yeasen, Cat. #33201ES60), diluted according to the manufacturer's instructions). The membranes were washed 3 times with 1×TBST each for 10 minutes. HRP substrate was added onto the PVDF membrane. […]
For orientation: A western blot detects proteins with antibodies after separation by electrophoresis.

Turning to `O=C(NS(=O)(=O)c1ccc(NC[C@H]2COCCO2)c([N+](=O)[O-])c1)c1ccc(N2CCN(CC3=C(c4ccc(Cl)cc4)CC4(CCC4)CC3)CC2)cc1Oc1cnc2[nH]ccc2c1` [Compound 6, (S)-N-((4-(((1,4-dioxan-2-yl)methyl)amino)-3-nitrophenyl)sulfonyl)-2-((1H-pyrrolo[2,3-b]pyridin-5-yl)oxy)-4-(4-((6-(4-chlorophenyl)spiro[3.5]non-6-en-7-yl)methyl)piperazin-1-yl)benzamide], in the test with MV-4-11 AML xenograft, the mRECIST entry is “no CR or PR and 6/6 PD”; the “RTV (D22) (Mean ± SEM)” value came out at 8.36 ± 0.76; the “T/C (%) (D22)” value was 62.76%. In addition, in the test on OCI-AML-3 AML xenograft, the “RTV(D15) (Mean ± SEM)” value was 12.77 ± 1.51 and the “T/C (%) (D15)” value stood at 61.36%. Also, the “sensitivity of the cell line to Compound 6” value (shortened to “sensitivity of the cell line”) in the test on SKM-1 cells is “non-sensitive”. Moreover, the “sensitivity of the cell line” value in the test on OCI-AML-3 cells [1] was “non-sensitive”. For the same compound, in the test with MV-4-11 cells, the “sensitivity of the cell line” value is reported as “sensitive; also recorded: moderate sensitivity”. In the test on OCI-AML-3 cells [2], the “apoptosis (Annexin V+ cells)” value turned out to be 12.1%.

Regarding `COC(=O)C[C@](O)(CCCC(C)(C)O)C(=O)O[C@@H]1C(OC)=C[C@]23CCCN2CCc2cc4c(cc2[C@H]13)OCO4` [HHT, homoharringtonine], in the test on MV-4-11 AML xenograft, the mRECIST was 3/5 SD and 3/5 SD, 2/5 PD; the “RTV (D22) (Mean ± SEM)” value turned out to be 4.32 ± 1.42; the “T/C (%) (D22)” value was determined as 32.43%. In the test on MCL-1, the “expression level of anti-apoptosis protein MCL-1” value is reported as “reduce the expression level”. Moreover, in the test on OCI-AML-3 AML xenograft, the “RTV(D15) (Mean ± SEM)” value is 13.89 ± 0.82 and the “T/C (%) (D15)” value is listed as 66.77%. Also, the “apoptosis (Annexin V+ cells)” value with OCI-AML-3 cells [2] stood at 25.0%.

For `CC1(C)CCC(CN2CCN(c3ccc(C(=O)NS(=O)(=O)c4ccc(NCC5CCOCC5)c([N+](=O)[O-])c4)c(Oc4cnc5[nH]ccc5c4)c3)CC2)=C(c2ccc(Cl)cc2)C1` [ABT-199], in the test with MV-4-11 AML xenograft, the mRECIST entry was “no CR or PR and 6/6 PD”; the “RTV (D22) (Mean ± SEM)” value amounted to 11.77 ± 1.94; the “T/C (%) (D22)” value is listed as 88.27%.
